In PubChem BioAssay (NCI):
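Test compounds were applied to cells in 96-well plates for 48 hours at 5 doses. GI50: concentration for 50% inhibition of growth. Definition used: TGI = concentration required for complete inhibition of growth.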

Tests used:
Assay in all cases: DTP human tumour cell line panel, 48 h; in the data active = GI50 below about 0.43 µM; inactive = the rest
M14 melanoma = tested on: M14 melanoma
HOP-62 NSCLC = tested on: HOP-62 NSCLC
HOP-92 NSCLC = tested on: HOP-92 NSCLC
HCT-116 colon = tested on: HCT-116 colon
OVCAR-3 ovarian = tested on: OVCAR-3 ovarian
LXFL 529 NSCLC = tested on: LXFL 529 NSCLC
M19-MEL melanoma = tested on: M19-MEL melanoma
COLO 205 colon = tested on: COLO 205 colon
A498 renal = tested on: A498 renal
K-562 leukemia = tested on: K-562 leukemia
CCRF-CEM leukemia = tested on: CCRF-CEM leukemia
HT29 colon = tested on: HT29 colon
HL-60(TB) leukemia = tested on: HL-60(TB) leukemia
786-0 renal = tested on: 786-0 renal
RXF 393 renal = tested on: RXF 393 renal
U251 CNS = tested on: U251 CNS
UACC-257 melanoma = tested on: UACC-257 melanoma
SK-OV-3 ovarian = tested on: SK-OV-3 ovarian
RPMI-8226 leukemia = tested on: RPMI-8226 leukemia
OVCAR-8 ovarian = tested on: OVCAR-8 ovarian
UACC-62 melanoma = tested on: UACC-62 melanoma
SK-MEL-28 melanoma = tested on: SK-MEL-28 melanoma
DLD-1 colon = tested on: DLD-1 colon
SF-295 CNS = tested on: SF-295 CNS
SF-539 CNS = tested on: SF-539 CNS
MOLT-4 leukemia = tested on: MOLT-4 leukemia
KM20L2 colon = tested on: KM20L2 colon
OVCAR-4 ovarian = tested on: OVCAR-4 ovarian
SK-MEL-2 melanoma = tested on: SK-MEL-2 melanoma
CAKI-1 renal = tested on: CAKI-1 renal
ACHN renal = tested on: ACHN renal
SK-MEL-5 melanoma = tested on: SK-MEL-5 melanoma
SNB-75 CNS = tested on: SNB-75 CNS
NCI-H226 lung = tested on: NCI-H226 lung
LOX IMVI melanoma = tested on: LOX IMVI melanoma
SN12C renal = tested on: SN12C renal
HCT-15 colon = tested on: HCT-15 colon
A549 NSCLC = tested on: A549 NSCLC
HCC-2998 colon = tested on: HCC-2998 colon
SNB-19 CNS = tested on: SNB-19 CNS
SW-620 colon = tested on: SW-620 colon
SF-268 CNS = tested on: SF-268 CNS
NCI-H522 lung = tested on: NCI-H522 lung
KM12 colon = tested on: KM12 colon
NCI-H23 lung = tested on: NCI-H23 lung
UO-31 renal = tested on: UO-31 renal
TK-10 renal = tested on: TK-10 renal
MALME-3M melanoma = tested on: MALME-3M melanoma
NCI-H460 lung = tested on: NCI-H460 lung
IGROV1 ovarian = tested on: IGROV1 ovarian
HOP-18 NSCLC = tested on: HOP-18 NSCLC
OVCAR-5 ovarian = tested on: OVCAR-5 ovarian
EKVX NSCLC = tested on: EKVX NSCLC
DMS 273 small cell lung = tested on: DMS 273 small cell lung
DMS 114 small cell lung = tested on: DMS 114 small cell lung
SNB-78 CNS = tested on: SNB-78 CNS
SR leukemia = tested on: SR leukemia

CC(=O)[CH-]C(=O)c1ccccc1.CC(=O)[CH-]C(=O)c1ccccc1.[Nd+3].[OH-].[OH3+]
inactive: GI50 (M14 melanoma) > 100 µM | GI50 (HOP-62 NSCLC) > 100 µM | GI50 (HOP-92 NSCLC) > 100 µM | GI50 (HCT-116 colon) > 100 µM | GI50 (OVCAR-3 ovarian) > 100 µM | GI50 (LXFL 529 NSCLC) > 100 µM | GI50 (M19-MEL melanoma) > 100 µM | GI50 (COLO 205 colon) > 100 µM | GI50 (A498 renal) > 100 µM | GI50 (K-562 leukemia) > 100 µM | GI50 (CCRF-CEM leukemia) > 100 µM | GI50 (HT29 colon) > 100 µM | GI50 (HL-60(TB) leukemia) > 100 µM | GI50 (786-0 renal) > 100 µM | GI50 (RXF 393 renal) > 100 µM | GI50 (U251 CNS) > 100 µM | GI50 (UACC-257 melanoma) > 100 µM | GI50 (SK-OV-3 ovarian) > 100 µM | GI50 (RPMI-8226 leukemia) > 100 µM | GI50 (OVCAR-8 ovarian) > 100 µM | GI50 (UACC-62 melanoma) > 100 µM | GI50 (SK-MEL-28 melanoma) > 100 µM | GI50 (DLD-1 colon) > 100 µM | GI50 (SF-295 CNS) > 100 µM | GI50 (SF-539 CNS) > 100 µM | GI50 (MOLT-4 leukemia) > 100 µM | GI50 (KM20L2 colon) > 100 µM | GI50 (OVCAR-4 ovarian) > 100 µM | GI50 (SK-MEL-2 melanoma) > 100 µM | GI50 (CAKI-1 renal) > 100 µM | GI50 (ACHN renal) > 100 µM | GI50 (SK-MEL-5 melanoma) > 100 µM | GI50 (SNB-75 CNS) 60.5 µM | GI50 (NCI-H226 lung) > 100 µM | GI50 (LOX IMVI melanoma) > 100 µM | GI50 (SN12C renal) > 100 µM | GI50 (HCT-15 colon) > 100 µM | GI50 (A549 NSCLC) > 100 µM | GI50 (HCC-2998 colon) > 100 µM | GI50 (SNB-19 CNS) > 100 µM | GI50 (SW-620 colon) > 100 µM | GI50 (SF-268 CNS) > 100 µM | GI50 (NCI-H522 lung) > 100 µM | GI50 (KM12 colon) > 100 µM | GI50 (NCI-H23 lung) > 100 µM | GI50 (UO-31 renal) > 100 µM | GI50 (TK-10 renal) > 100 µM | GI50 (MALME-3M melanoma) > 100 µM | GI50 (NCI-H460 lung) > 100 µM | GI50 (IGROV1 ovarian) > 100 µM | GI50 (HOP-18 NSCLC) > 100 µM
> 100 µM: TGI (M14 melanoma) | TGI (HOP-62 NSCLC) | TGI (HOP-92 NSCLC) | TGI (HCT-116 colon) | TGI (OVCAR-3 ovarian) | TGI (LXFL 529 NSCLC) | TGI (M19-MEL melanoma) | TGI (COLO 205 colon) | TGI (A498 renal) | TGI (K-562 leukemia) | TGI (CCRF-CEM leukemia) | TGI (HT29 colon) | TGI (HL-60(TB) leukemia) | TGI (786-0 renal) | TGI (RXF 393 renal) | TGI (U251 CNS) | TGI (UACC-257 melanoma) | TGI (SK-OV-3 ovarian) | TGI (RPMI-8226 leukemia) | TGI (OVCAR-8 ovarian) | TGI (UACC-62 melanoma) | TGI (SK-MEL-28 melanoma) | TGI (DLD-1 colon) | TGI (SF-295 CNS) | TGI (SF-539 CNS) | TGI (MOLT-4 leukemia) | TGI (KM20L2 colon) | TGI (OVCAR-4 ovarian) | TGI (SK-MEL-2 melanoma) | TGI (CAKI-1 renal) | TGI (ACHN renal) | TGI (SK-MEL-5 melanoma) | TGI (SNB-75 CNS) | TGI (NCI-H226 lung) | TGI (LOX IMVI melanoma) | TGI (SN12C renal) | TGI (HCT-15 colon) | TGI (A549 NSCLC) | TGI (HCC-2998 colon) | TGI (SNB-19 CNS) | TGI (SW-620 colon) | TGI (SF-268 CNS) | TGI (NCI-H522 lung) | TGI (KM12 colon) | TGI (NCI-H23 lung) | TGI (UO-31 renal) | TGI (TK-10 renal) | TGI (MALME-3M melanoma) | TGI (NCI-H460 lung) | TGI (IGROV1 ovarian) | TGI (HOP-18 NSCLC)

CCOC(C)OCC#CCCBr (stereo not given)
> 100 µM: TGI (M14 melanoma) | TGI (HOP-62 NSCLC) | TGI (HCT-116 colon) | TGI (OVCAR-3 ovarian) | TGI (OVCAR-5 ovarian) | TGI (LXFL 529 NSCLC) | TGI (M19-MEL melanoma) | TGI (COLO 205 colon) | TGI (K-562 leukemia) | TGI (CCRF-CEM leukemia) | TGI (HT29 colon) | TGI (HL-60(TB) leukemia) | TGI (786-0 renal) | TGI (RXF 393 renal) | TGI (U251 CNS) | TGI (UACC-257 melanoma) | TGI (EKVX NSCLC) | TGI (DMS 273 small cell lung) | TGI (SK-OV-3 ovarian) | TGI (RPMI-8226 leukemia) | TGI (OVCAR-8 ovarian) | TGI (UACC-62 melanoma) | TGI (DLD-1 colon) | TGI (SF-295 CNS) | TGI (SF-539 CNS) | TGI (MOLT-4 leukemia) | TGI (KM20L2 colon) | TGI (DMS 114 small cell lung) | TGI (OVCAR-4 ovarian) | TGI (SNB-78 CNS) | TGI (SK-MEL-2 melanoma) | TGI (CAKI-1 renal) | TGI (ACHN renal) | TGI (SK-MEL-5 melanoma) | TGI (SNB-75 CNS) | TGI (LOX IMVI melanoma) | TGI (SN12C renal) | TGI (HCT-15 colon) | TGI (A549 NSCLC) | TGI (HCC-2998 colon) | TGI (SNB-19 CNS) | TGI (SW-620 colon) | TGI (SF-268 CNS) | TGI (KM12 colon) | TGI (NCI-H23 lung) | TGI (UO-31 renal) | TGI (TK-10 renal) | TGI (MALME-3M melanoma) | TGI (NCI-H460 lung) | TGI (IGROV1 ovarian) | TGI (HOP-18 NSCLC)

CC(NC(=O)c1ccccc1)C(=O)N(Cc1ccccc1)Cc1ccccc1 (stereo not given)
98.4 µM: TGI (RXF 393 renal)
60.4 µM: TGI (NCI-H23 lung)
53.7 µM: TGI (MALME-3M melanoma)
89.9 µM: TGI (A498 renal)
90.4 µM: TGI (KM20L2 colon)
97.6 µM: TGI (SK-MEL-28 melanoma)
58 µM: TGI (KM12 colon)
91.7 µM: TGI (U251 CNS)
68.7 µM: TGI (HOP-92 NSCLC)
45.7 µM: TGI (RPMI-8226 leukemia)
56.3 µM: TGI (SK-MEL-2 melanoma) | TGI (NCI-H226 lung)
95.3 µM: TGI (OVCAR-4 ovarian)
47.7 µM: TGI (LOX IMVI melanoma)
96.6 µM: TGI (SNB-78 CNS)
44.9 µM: TGI (SK-MEL-5 melanoma)
40.8 µM: TGI (COLO 205 colon)
39.1 µM: TGI (M14 melanoma)
53.8 µM: TGI (DMS 114 small cell lung)
> 100 µM: TGI (OVCAR-5 ovarian) | TGI (HT29 colon) | TGI (786-0 renal) | TGI (UACC-257 melanoma) | TGI (SK-OV-3 ovarian) | TGI (DLD-1 colon) | TGI (SF-539 CNS) | TGI (CAKI-1 renal) | TGI (ACHN renal) | TGI (SNB-75 CNS) | TGI (SN12C renal) | TGI (A549 NSCLC) | TGI (HCC-2998 colon) | TGI (SNB-19 CNS) | TGI (SW-620 colon) | TGI (SF-268 CNS) | TGI (TK-10 renal) | TGI (IGROV1 ovarian)
53.4 µM: TGI (LXFL 529 NSCLC)
30.7 µM: TGI (UACC-62 melanoma)
65.4 µM: TGI (NCI-H460 lung)
66.4 µM: TGI (HOP-62 NSCLC)
88.9 µM: TGI (HCT-15 colon)
47.1 µM: TGI (CCRF-CEM leukemia) | TGI (DMS 273 small cell lung)
35.6 µM: TGI (MOLT-4 leukemia)
75 µM: TGI (SF-295 CNS)
64.6 µM: TGI (SR leukemia)
43.5 µM: TGI (K-562 leukemia)
66 µM: TGI (HCT-116 colon)
65.2 µM: TGI (NCI-H522 lung)
67.7 µM: TGI (M19-MEL melanoma)
83.9 µM: TGI (UO-31 renal)
